The subject of series [1] is SMN2 minigene (full length SMN2 minigene mRNA containing SMN2 exon 7). As to the kind of experiment: SMN2 minigene mRNA splicing RT-qPCR assay in cultured cells. The settings on record: Homo sapiens, HEK293-H; HEK293H cells stably transfected with SMN2-A minigene; 24 hours; 7-point concentration curve; 1.5-fold relative to vehicle-treated cells; read-out: EC1.5x for production of full length SMN2 mRNA. The series is classed as cell-based, human. In short, it runs like this:
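Full-length SMN2 minigene mRNA (exon 7 included), minigene-specific and not endogenous SMN, quantified by RT-qPCR multiplexed with GAPDH in stably transfected HEK293H cells after 24 h compound exposure at 37° C. Abundance from efficiency-corrected Ct, normalized to GAPDH and vehicle; EC1.5x reported as star bins.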
In general terms: Quantitative PCR measures a nucleic acid by following its amplification.

The next series relates to Smn protein. As to the kind of experiment: Smn protein assay in cultured cells (SMN HTRF). Type of series: cell-based, human. The settings on record: 48 hours; for EC1.5x (concentration giving 1.5-fold Smn protein increase): SMA Type 1 patient fibroblast cells (GM03813), 7-point concentration curve, SMN HTRF, concentration producing 1.5 times Smn protein vs DMSO vehicle control, read-out: EC1.5x for Smn protein expression; for maximum fold (Fold) increase of Smn protein: SMA patient fibroblast cells, 7-point concentration data, fold increase relative to vehicle control (SMN HTRF). In short, it runs like this: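 Smn in SMA fibroblast lysates, measured by anti-SMN HTRF after 48 h compound exposure; EC1.5x from fold change over vehicle.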
For orientation: Time-resolved FRET reads energy transfer from a long-lived donor to a nearby acceptor.

Some results are limits rather than exact numbers.

Compound `Cc1nccn2cc(-c3cc4ccc(N5CCN[C@H](C)C5)cc4oc3=O)cc12` [Compound 586, 7-[(3R)-3-methylpiperazin-1-yl]-3-(1-methylpyrrolo[1,2-a]pyrazin-7-yl)-2H-chromen-2-one] had a melting point of 212 to 215 °C. The EC (1.5-fold) in series [1] is below 0.1 µM. Moreover, in the series on Smn protein, the EC1.5x (concentration giving 1.5-fold Smn protein increase) was below 300 nM; the “maximum fold (Fold) increase of Smn protein” value (shortened to “maximum fold (Fold) increase”) was “*** (fold increase between >1.35 and ≤1.5)”.

As for `C[C@@H]1CN(c2cc(F)c3cc(-c4nc5ccccc5[nH]4)c(=O)oc3c2)C[C@H](C)N1` [Compound 371, 3-(1H-benzimidazol-2-yl)-7-[(3R,5S)-3,5-dimethylpiperazin-1-yl]-5-fluoro-2H-chromen-2-one], the melting point lay within 288 to 294 °C. Moreover, the EC (1.5-fold) in series [1] was 0.3 to 1 µM. In addition, the “maximum fold (Fold) increase” value with Smn protein is listed as “* (maximum fold increase of ≤1.2)”.

`CN1CCN(c2ccc3cc(-c4cn5cccc(C(F)(F)F)c5n4)c(=O)oc3c2)CC1` [Compound 210, 7-(4-methylpiperazin-1-yl)-3-[8-(trifluoromethyl)imidazo[1,2-a]pyridin-2-yl]-2H-chromen-2-one] gave a melting point of 235 to 237 °C. Moreover, the EC (1.5-fold) in series [1] is 0.3 to 1 µM. Moreover, in the series with Smn protein, the “maximum fold (Fold) increase” value is reported as “* (maximum fold increase of ≤1.2)”.

`CN1CCCN(c2cc(F)c3cc(-c4nc5c(F)cccc5o4)c(=O)oc3c2)CC1` [Compound 369, 5-fluoro-3-(4-fluoro-1,3-benzoxazol-2-yl)-7-(4-methyl-1,4-diazepan-1-yl)-2H-chromen-2-one] showed a melting point of 224 to 228 °C. In series [1], the EC (1.5-fold) was in the range of 0.1 to 0.3 µM. Further, in the series with Smn protein, the “maximum fold (Fold) increase” value was “** (fold increase between >1.2 and ≤1.35)”.

As to `Cc1ccc2nc(-c3cc4ccc(N5CCC(N)CC5)cc4oc3=O)cn2c1` [Compound 219, 7-(4-aminopiperidin-1-yl)-3-(6-methylimidazo[1,2-a]pyridin-2-yl)-2H-chromen-2-one], the melting point lay in the range of 250 to 252 °C. The EC (1.5-fold) in series [1] was 3 to 30 µM. Besides, the “maximum fold (Fold) increase” value in the series with Smn protein is recorded as “* (maximum fold increase of ≤1.2)”.

In turn, `Cc1cc(F)cn2cc(-c3cc4ccc(N5CCN(C)CC5)cc4oc3=O)nc12` [Compound 329, 3-(6-fluoro-8-methylimidazo[1,2-a]pyridin-2-yl)-7-(4-methylpiperazin-1-yl)-2H-chromen-2-one] displayed a melting point of 223 to 233 °C. For the same compound, the EC (1.5-fold) in series [1] lay within 0.3 to 1 µM. In addition, the “maximum fold (Fold) increase” value in the series with Smn protein is on record as “* (maximum fold increase of ≤1.2)”.

In turn, `CNCc1ccc2cc(-c3nc4ccccc4s3)c(=O)oc2c1` [Compound 78, 3-(1,3-benzothiazol-2-yl)-7-[(methylamino)methyl]-2H-chromen-2-one] showed a melting point of 156 to 160 °C. In addition, in series [1], the EC (1.5-fold) was in the range of 0.3 to 1 µM. Also, the “maximum fold (Fold) increase” value in the series on Smn protein is “*** (fold increase between >1.35 and ≤1.5)”.

Compound `CC(C)NCc1ccc2cc(-c3nc4c(Cl)cccc4s3)c(=O)oc2c1` [Compound 10, 3-(4-chloro-1,3-benzothiazol-2-yl)-7-[(propan-2-ylamino)methyl]-2H-chromen-2-one] yielded a melting point of 157 to 161 °C. Besides, the EC (1.5-fold) in series [1] is 0.3 to 1 µM. The “maximum fold (Fold) increase” value with Smn protein is reported as “* (maximum fold increase of ≤1.2)”.

In the case of `Cc1cn2cc(-c3cc4ccc(N(C)C5CCN(C)C5)cc4oc3=O)nc2c(C)n1` (stereo not drawn) [Compound 615, 3-(6,8-dimethylimidazo[1,2-a]pyrazin-2-yl)-7-[methyl(1-methylpyrrolidin-3-yl)amino]-2H-chromen-2-one], the melting point lay in the range of 182 to 184 °C. The EC (1.5-fold) in series [1] was below 0.1 µM. In the series with Smn protein, the EC1.5x (concentration giving 1.5-fold Smn protein increase) was below 300 nM; the “maximum fold (Fold) increase” value is “**** (fold increase between >1.5 and ≤1.65)”.

Compound `C[C@H]1CN(c2ccc3cc(-c4cn5cccc(Cl)c5n4)c(=O)oc3c2)CCN1C` [Compound 339, 3-(8-chloroimidazo[1,2-a]pyridin-2-yl)-7-[(3S)-3,4-dimethylpiperazin-1-yl]-2H-chromen-2-one] registered a melting point of 184 to 186 °C. Moreover, the EC (1.5-fold) in series [1] lay within 0.1 to 0.3 µM. Moreover, the “maximum fold (Fold) increase” value in the series with Smn protein is given as “* (maximum fold increase of ≤1.2)”.

`Cc1cn2cc(-c3cc4ccc(CCCN5CCOCC5)cc4oc3=O)nc2c(C)n1` [Compound 884, 3-(6,8-dimethylimidazo[1,2-a]pyrazin-2-yl)-7-[3-(morpholin-4-yl)propyl]-2H-chromen-2-one]: the melting point lay within 168 to 172 °C. The EC (1.5-fold) in series [1] is below 0.1 µM. In addition, in the series on Smn protein, the EC1.5x (concentration giving 1.5-fold Smn protein increase) was below 300 nM and the “maximum fold (Fold) increase” value is given as “***** (fold increase >1.65)”.

Regarding `C[C@@H]1CN(c2ccc3cc(-c4cn5cccc(C(F)(F)F)c5n4)c(=O)oc3c2)C[C@H](C)N1` [Compound 211, 7-[(3R,5S)-3,5-dimethylpiperazin-1-yl]-3-[8-(trifluoromethyl)imidazo[1,2-a]pyridin-2-yl]-2H-chromen-2-one], the melting point lay within 295 to 298 °C. The EC (1.5-fold) in series [1] was 0.3 to 1 µM. In addition, the “maximum fold (Fold) increase” value in the series with Smn protein was “* (maximum fold increase of ≤1.2)”.

As for `Cc1ccc2nc(-c3cc4ccc(O[C@@H]5CCNC5)cc4oc3=O)cn2c1.Cl.Cl` [Compound 326, 3-(6-methylimidazo[1,2-a]pyridin-2-yl)-7-[(3R)-pyrrolidin-3-yloxy]-2H-chromen-2-one hydrochloride (1:2)], the melting point lay in the range of 261 to 265 °C. In addition, the EC (1.5-fold) in series [1] was 0.1 to 0.3 µM. Moreover, in the series with Smn protein, the “maximum fold (Fold) increase” value was “** (fold increase between >1.2 and ≤1.35)”.

For `CCN1CCC(c2ccc3cc(-c4ccc5nc(C)cn5c4)c(=O)oc3c2)CC1` [Compound 827, 7-(1-ethylpiperidin-4-yl)-3-(2-methylimidazo[1,2-a]pyridin-6-yl)-2H-chromen-2-one], the melting point was in the range of 268 to 270 °C. For the same compound, the EC (1.5-fold) in series [1] was below 0.1 µM. In addition, in the series on Smn protein, the EC1.5x (concentration giving 1.5-fold Smn protein increase) was below 300 nM and the “maximum fold (Fold) increase” value is on record as “***** (fold increase >1.65)”.

`Cc1ccn2nc(-c3cc4ccc(N5CCCN(C)CC5)cc4oc3=O)cc2c1` [Compound 310, 7-(4-methyl-1,4-diazepan-1-yl)-3-(5-methylpyrazolo[1,5-a]pyridin-2-yl)-2H-chromen-2-one] showed a melting point of 175 to 177 °C. In series [1], the EC (1.5-fold) fell in the range of 0.3 to 1 µM. In addition, the “maximum fold (Fold) increase” value in the series on Smn protein is “** (fold increase between >1.2 and ≤1.35)”.

`CC1(C)CN(c2ccc3cc(-c4cn5cc(F)ccc5n4)c(=O)oc3c2)CCN1` [Compound 508, 7-(3,3-dimethylpiperazin-1-yl)-3-(6-fluoroimidazo[1,2-a]pyridin-2-yl)-2H-chromen-2-one] yielded a melting point of 182 to 185 °C. The EC (1.5-fold) in series [1] is 0.3 to 1 µM. Besides, the “maximum fold (Fold) increase” value with Smn protein is “** (fold increase between >1.2 and ≤1.35)”.

With `C[C@H]1CN(c2ccc3cc(-c4cc5ccccc5s4)c(=O)oc3c2)CCN1` [Compound 410, 3-(1-benzothiophen-2-yl)-7-[(3S)-3-methylpiperazin-1-yl]-2H-chromen-2-one], the melting point was 260 to 262 °C. Besides, the EC (1.5-fold) in series [1] was below 0.1 µM. Further, in the series with Smn protein, the “maximum fold (Fold) increase” value was “* (maximum fold increase of ≤1.2)”.

`O=c1oc2cc(N3CCNCC3)cc(F)c2cc1-c1nc2ccccc2o1` [Compound 159, 3-(1,3-benzoxazol-2-yl)-5-fluoro-7-(piperazin-1-yl)-2H-chromen-2-one] registered a melting point of 245 to 250 °C. The EC (1.5-fold) in series [1] fell in the range of 0.3 to 1 µM. Moreover, the “maximum fold (Fold) increase” value with Smn protein was “*** (fold increase between >1.35 and ≤1.5)”.

`C[C@@H]1CN(c2ccc3cc(-c4ccc5c(c4)OCO5)c(=O)oc3c2)CCN1` [Compound 488, 3-(1,3-benzodioxol-5-yl)-7-[(3R)-3-methylpiperazin-1-yl]-2H-chromen-2-one]: the melting point was in the range of 135 to 137 °C. In addition, in series [1], the EC (1.5-fold) fell in the range of 3 to 30 µM. Besides, the “maximum fold (Fold) increase” value in the series with Smn protein was “* (maximum fold increase of ≤1.2)”.

In turn, `Cc1cn2cc(-c3cc4ccc(N5CCN6CCC[C@@H]6C5)cc4oc3=O)cc2c(C)n1` [Compound 669, 3-(1,3-dimethylpyrrolo[1,2-a]pyrazin-7-yl)-7-[(8aR)-hexahydropyrrolo[1,2-a]pyrazin-2(1H)-yl]-2H-chromen-2-one] registered a melting point of 170 to 173 °C. Besides, the EC (1.5-fold) in series [1] was below 0.1 µM. For the same compound, in the series on Smn protein, the EC1.5x (concentration giving 1.5-fold Smn protein increase) was below 300 nM and the “maximum fold (Fold) increase” value was “***** (fold increase >1.65)”.

Turning to `CCN1CCC(Oc2ccc3cc(-c4cn5cc(C)nc(C)c5n4)c(=O)oc3c2)CC1` [Compound 898, 3-(6,8-dimethylimidazo[1,2-a]pyrazin-2-yl)-7-[(1-ethylpiperidin-4-yl)oxy]-2H-chromen-2-one], the melting point is 175 to 177 °C. Besides, in series [1], the EC (1.5-fold) was below 0.1 µM. Moreover, in the series on Smn protein, the EC1.5x (concentration giving 1.5-fold Smn protein increase) was below 300 nM and the “maximum fold (Fold) increase” value was “***** (fold increase >1.65)”.

The term melting point denotes the temperature, or range, at which the solid turns liquid.
